US20100267672A1, “NOVEL COMPOUNDS OF REVERSE-TURN MIMETICS, METHOD FOR MANUFACTURING THE SAME AND USE THEREOF” (Choongwae Pharma Corporation, priority 2009, published 2010)

Tests used:
[1] = tested on: human AML cell line, MV4-11; experiment: Anticancer activity in acute myeloid leukemia (AML) animal model; type: in vivo, Balb/C nude mice; conditions: intravenously once a day, five times per week for two weeks, MV4-11 implanted nude mice, Day 12 vs Day 1; for inhibition in vivo at 25 mg/kg: Mus musculus, iv, 288 h, read-out: Tumor growth Inhibition Rate
Method: Test materials were prepared in the form of prodrugs to increase the solubility of compounds of interest. A phosphate functional group which may be either a monosodium or disodium form was introduced as a prodrug substituent.
The human AML cell line, MV4-11, was purchased (ATCC, U.S.A.) and cultured at 37° C. under a 5% CO2 condition in Iscove's Modified Dulbecco's Medium (GIBCO, cat# 21056) supplemented with 10% fetal bovine serum (GIBCO, cat# 25030-081). Female Balb/C nude mice (OrientBio, Sungnam-city, Korea), 5-6 weeks old, were acclimated to the breeding room. Using a sterilized syringe, a mixture of 1:1 of MV4-11 cells: matrigel (v/v) was implanted in an amount of 5×10^6/mouse beneath the axilla of each of the mice. When tumor was formed 2 weeks after the implantation, the mice were divided into five (5) groups in such a manner that a minimum deviation with regard to tumor size and body weight was obtained among the groups. The test materials were dissolved in physiological saline and intravenously injected at a dose of 10 ml/kg once a day and five times per week for two weeks (administration days of test materials, D1˜D5, D8˜D12). For a control, only physiological saline was used. The tumor size was determined as calculated by the following equation: Long Axis×Short Axis×Short Axis/2. The Long and Short Axes of the tumor were measured in length using a digital caliper (Mitsutoyo, Japan). The anticancer activity of the test materials was numerated according to the following equation.
Tumor growth Inhibition Rate A (%)=100×[1−(b−a)/(Ref b−Ref a)] […]
a=mean tumor size of drug-administered group on Day 1 b=mean tumor size of drug-administered group on Day 12
Ref a=mean tumor size of the control on Day 1
Ref b=mean tumor size of the control on Day 12
When the mean tumor size of the drug-administered group on Day 12 was smaller than that of just before the administration of the test materials, it is indicated as Regression (>100%).

[2] = target: T1, hERG (Homo sapiens, UniProt Q12809); experiment: In vitro cardiotoxicity assay: inhibitory activity against hERG (whole-cell patch clamp); type: cell-based; conditions: hERG-transfected HEK293 cells, tail current of outward hERG K+ currents; read-out: Cardiotoxicity (hERG Inhibiting Activity Assay, IC50)
T1 construct: expressed in transfected cells; host or cells: HEK293
T1 sequence (Q12809 whole entry): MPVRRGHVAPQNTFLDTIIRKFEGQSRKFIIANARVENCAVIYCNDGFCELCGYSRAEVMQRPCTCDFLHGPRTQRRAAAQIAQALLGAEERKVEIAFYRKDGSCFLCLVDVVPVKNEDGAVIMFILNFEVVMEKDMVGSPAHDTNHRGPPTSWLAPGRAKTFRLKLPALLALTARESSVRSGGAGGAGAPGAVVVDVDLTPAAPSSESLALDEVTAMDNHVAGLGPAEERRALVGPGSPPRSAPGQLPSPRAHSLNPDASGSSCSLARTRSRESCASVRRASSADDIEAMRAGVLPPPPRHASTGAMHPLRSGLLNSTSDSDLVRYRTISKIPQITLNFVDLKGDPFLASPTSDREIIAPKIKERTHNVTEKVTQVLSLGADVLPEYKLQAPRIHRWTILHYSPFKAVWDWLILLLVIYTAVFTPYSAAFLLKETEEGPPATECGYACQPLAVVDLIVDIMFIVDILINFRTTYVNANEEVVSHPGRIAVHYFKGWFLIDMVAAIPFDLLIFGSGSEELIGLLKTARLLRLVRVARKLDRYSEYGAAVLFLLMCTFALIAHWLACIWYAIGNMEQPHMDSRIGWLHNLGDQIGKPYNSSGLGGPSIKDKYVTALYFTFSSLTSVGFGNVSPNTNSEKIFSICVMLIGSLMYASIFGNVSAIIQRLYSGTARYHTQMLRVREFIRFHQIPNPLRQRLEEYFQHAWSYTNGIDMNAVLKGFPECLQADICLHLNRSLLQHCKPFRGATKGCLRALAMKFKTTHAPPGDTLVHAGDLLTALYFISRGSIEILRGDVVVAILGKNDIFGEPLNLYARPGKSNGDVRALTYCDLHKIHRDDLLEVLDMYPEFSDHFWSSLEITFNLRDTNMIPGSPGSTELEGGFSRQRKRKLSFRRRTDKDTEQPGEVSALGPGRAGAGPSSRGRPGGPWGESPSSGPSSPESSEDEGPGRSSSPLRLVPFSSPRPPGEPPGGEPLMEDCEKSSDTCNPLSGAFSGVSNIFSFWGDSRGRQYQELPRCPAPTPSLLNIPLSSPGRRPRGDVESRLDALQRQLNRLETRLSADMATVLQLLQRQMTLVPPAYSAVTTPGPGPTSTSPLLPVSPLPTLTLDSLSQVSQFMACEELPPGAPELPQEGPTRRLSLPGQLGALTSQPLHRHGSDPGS
Method: HEK293 was transfected with hERG (human Ether-à-go-go Related Gene) cDNA for 48 hrs using Lipofectamine 2000 (Invitrogen, USA). The transfected HEK293 cells were cultured in Modified Dulbecco's Medium (MEM, Gibco, 1 L) supplemented with 10% FBS, sodium pyruvate (10 ml), penicillin/streptomycin (10 ml) and Zeocin (100 μg/ml, Invitrogen) at 37° C. under 5% CO2. After being detached from incubation vessels by trypsinization, the HEK293 cells were placed in a chamber for patch clamp recording. A whole-cell patch clamp method was used to record hERG K+ currents in HEK293 cells using the following intra/extracellular solutions.
The membrane potential was depolarized from −80 mV to +20 mV for 1,000 ms in a whole-cell patch clamp mode and then repolarized to −40 mV for 1,000 ms, during which the tail current of outward hERG K+ currents was recorded. In this regard, the concentrations of the compounds that are required for 50% inhibition of the current were represented as IC50.
The risk of cardiotoxicity has been raised in many drugs. Some of them were withdrawn from the market because they caused a sudden death due to the cardiotoxicity thereof. The cardiotoxicity of drugs is associated with the extension of QT intervals on electrocardiograms. Particularly, most of the drugs extending QT intervals are known to inhibit IKr channels (Bernard Fermini and Anthony A. Fossa, Nature Reviews Drug Discovery, 2003, 2, 439-447). […] In this example, the risk of cardiotoxicity was evaluated using human hERG channel-expressing mammal cells, which are internationally recognized as a system (ICH guideline, S7B, Step 4, 12, May, 2005). Although pharmaceutical activity of drug should be taken into consideration, a drug is evaluated as having a low cardiotoxicity risk when IC50 thereof is 10 μM or higher. […] Having higher IC50, compound A1 was evaluated to be safer than compound A, and compounds B1, B2 and B3 than compound B.

[3] = Solubility of monosodium and disodium prodrug forms; type: physicochemical; conditions: aqueous medium; prodrug prepared by adding sodium hydroxide to P2
Method: The compounds were prepared in the form of prodrugs to improve the solubility thereof. Phosphate may be introduced as a possible prodrug substituent which can exist as in either monosodiumphosphate or disodiumphosphate form.
(§1) This prodrug was prepared by adding sodium hydroxide to P2, which was synthesized according to Example 9. Both monosodium and disodium forms of the prodrug show a solubility of up to 400 mg/ml. Both forms have advantageous properties as a composition for I.V. injection in that a monosodium form has pH 4.45 and a disodium form has pH of 7.62.

[4] = pH of monosodium and disodium prodrug forms; type: physicochemical; conditions: prodrug form as a composition for I.V. injection
Method: as §1
In the graph, the horizontal axis represents the added amounts of sodium hydroxide. In the graph, the first and second points of inflection correspond to the time of production of monosodium and disodium forms, respectively.

SMILES	inhibition in vivo at 25 mg/kg ([1]; dose 25 mg/kg) [%]	IC50 [2] [µM]	also measured
Nc1ccn([C@@H]2O[C@H](CO)[C@@H](O)[C@@H]2O)c(=O)n1 [Ara-C, reference compound]	–	–	Tumor growth Inhibition Rate ([1]; dose 25 mg/kg, 25 mg/kg): 66%; Tumor growth Inhibition Rate ([1]; dose 50 mg/kg): 77%
C=CCN1CC(=O)N2[C@@H](Cc3ccc(OP(=O)(O)O)cc3)C(=O)N(Cc3cccc4c(C(=O)CC)cn(C)c34)C[C@@H]2N1C(=O)NCc1ccccc1 [Compound A1]	> 100	80	–
C=CCN1CC(=O)N2[C@@H](Cc3ccc(OP(=O)(O)O)cc3)C(=O)N(Cc3cccc4c(C(C)=O)cn(C)c34)C[C@@H]2N1C(=O)NCc1ccccc1 [Compound A2]	> 100	–	–
C=CCN1CC(=O)N2[C@@H](Cc3ccc(OP(=O)(O)O)cc3)C(=O)N(Cc3cccc4c(C(C)=O)cn(CCC)c34)C[C@@H]2N1C(=O)NCc1ccccc1 [Compound A3]	> 100	–	–
C=CCN1CC(=O)N2[C@@H](Cc3ccc(OP(=O)(O)O)cc3)C(=O)N(Cc3cccc4c(C(C)=O)c[nH]c34)C[C@@H]2N1C(=O)NCc1ccccc1 [Compound A]	61	14	–
C=CCN1CC(=O)N2[C@@H](Cc3ccc(OP(=O)(O)O)cc3)C(=O)N(Cc3cccc4c(C(=O)CC(C)(C)C)cn(CCC)c34)C[C@@H]2N1C(=O)NCc1ccccc1 [Compound B1]	> 100	18	–
C=CCN1CC(=O)N2[C@@H](Cc3ccc(OP(=O)(O)O)cc3)C(=O)N(Cc3cccc4c(C(=O)CC(C)(C)C)cn(C)c34)C[C@@H]2N1C(=O)NCc1ccccc1 [Compound B2]	> 100	25	–
C=CCN1CC(=O)N2[C@@H](Cc3ccc(OP(=O)(O)O)cc3)C(=O)N(Cc3cccc4c(C(=O)CC(C)(C)C)cn(CCCCCC)c34)C[C@@H]2N1C(=O)NCc1ccccc1 [Compound B3]	80	20	–
C=CCN1CC(=O)N2[C@@H](Cc3ccc(OP(=O)(O)O)cc3)C(=O)N(Cc3cccc4c(C(=O)CC(C)(C)C)c[nH]c34)C[C@@H]2N1C(=O)NCc1ccccc1 [Compound B]	49	1.6	–
C=CCN1CC(=O)N2[C@@H](Cc3ccc(OP(=O)(O)O)cc3)C(=O)N(Cc3cccc4c(C(=O)C5CC5)cn(C)c34)C[C@@H]2N1C(=O)NCc1ccccc1 [Compound C1]	> 100	–	–
C=CCN1CC(=O)N2[C@@H](Cc3ccc(OP(=O)(O)O)cc3)C(=O)N(Cc3cccc4c(C(=O)C5CC5)cn(CC)c34)C[C@@H]2N1C(=O)NCc1ccccc1 [Compound C2]	> 100	–	–
C=CCN1CC(=O)N2[C@@H](Cc3ccc(OP(=O)(O)O)cc3)C(=O)N(Cc3cccc4c(C(=O)C5CC5)cn(CCCC)c34)C[C@@H]2N1C(=O)NCc1ccccc1 [Compound C3]	70	–	–
C=CCN1CC(=O)N2[C@@H](Cc3ccc(OP(=O)(O)O)cc3)C(=O)N(Cc3cccc4c(C(=O)C5CC5)c[nH]c34)C[C@@H]2N1C(=O)NCc1ccccc1 [Compound C]	25	–	–
C=CCN1CC(=O)N2[C@@H](Cc3ccc(OP(=O)([O-])[O-])cc3)C(=O)N(Cc3cccc4c(C(C)=O)cn(C)c34)C[C@@H]2N1C(=O)NCc1ccccc1.[Na+].[Na+] [disodium form]	–	–	solubility [3]: ≤ 400 mg/mL; pH [4]: 7.62
C=CCN1CC(=O)N2[C@@H](Cc3ccc(OP(=O)([O-])O)cc3)C(=O)N(Cc3cccc4c(C(C)=O)cn(C)c34)C[C@@H]2N1C(=O)NCc1ccccc1.[Na+] [monosodium form, Sodium 4-(((6S,9AS)-1-(benzylcarbamoyl)-8-((3-acetyl-1-methyl-1H-indol-7-yl)methyl)-2-allyl-octahydro-4,7-dioxo-1H-pyrazino[2,1-C][1,2,4]triazin-6-yl)methyl)phenyl hydrogenphosphate]	–	–	solubility [3]: ≤ 400 mg/mL; pH [4]: 4.45
